# Laboratory results taken from patent publication US20090124635A1, “CHEMICAL COMPOUNDS” (priority 2005, published 2009).
# Test system: HIV-1 fusion
# Test: gp160 induced cell-cell fusion assay (HeLa P4 / CHO-Tat10 cell lines)
# Type: cell-based
# Details: Human immunodeficiency virus 1, HeLaP4, read-out: IC50 against HIV-1 fusion
# Experimental: The gp160 induced cell-cell fusion assay uses a HeLa P4 cell line and a CHO-Tat10 cell line.
# The HeLa P4 cell line expresses CCR5 and CD4 and has been transfected with HIV-1 LTR-β-Galactosidase. The media for this cell line is Dulbecco modified eagle's medium (D-MEM) (without L-glutamine) containing 10% foetal calf serum (FCS), 2 mM L-glutamine penicillin/streptomycin (Pen/Strep; 100 U/mL penicillin+[…] streptomycin), and 1 μg/ml puromycin.
# The CHO cell line is a Tat (transcriptional trans activator)-expressing clone from a CHO JRR17.1 cell line that has been transfected with pTat puro plasmid. The media for this cell line is rich medium for mammalian cell culture originally developed at Roswell Park Memorial Institute RPMI1640 (without L-glutamine) containing 10% FCS, 2 mM L-glutamine, 0.5 mg/ml Hygromycin B and 12 μg/ml puromycin. The CHO JRR17.1 line expresses gp160 (JRFL) and is a clone that has been selected for its ability to fuse with a CCR5/CD4 expressing cell line.
# Upon cell fusion, Tat present in the CHO cell is able to transactivate the HIV-1 long terminal repeat (LTR) present in the HeLa cell leading to the expression of the β-Galactosidase enzyme. This expression is then measured using a Fluor Ace™ β-Galactosidase reporter assay kit (Bio-Rad cat no. 170-3150). This kit is a quantitative fluorescent assay that determines the level of expression of β-galactosidase using 4-methylumbelliferul-galactopyranoside (MUG) as substrate. β-Galactosidase hydrolyses the fluorogenic substrate resulting in release of the fluorescent molecule 4-methylumbelliferone (4MU). Fluorescence of 4-methylumbelliferone is then measured on a fluorometer using an excitation wavelength of 360 nm and emission wavelength of 460 nm.
# Compounds that inhibit fusion will give rise to a reduced signal and, following solubilisation in an appropriate solvent and dilution in culture medium, a dose-response curve for each compound can be used to calculate IC50 values.
row,Structure (SMILES),IC50
1,"Cc1ccnc(C)c1C(=O)N1CCC(C)(N2CCC(N(Cc3cccc(F)c3)C(=O)C3CC3)CC2)CC1 [Example 47, N-{1′-[(2,4-dimethylpyridin-3-yl)carbonyl]-4′-methyl-1,4′-bipiperidin-4-yl}-N-(3-fluorobenzyl)cyclopropanecarboxamide.2HCl]",0.343 nM
2,"Cc1ncnc(C)c1C(=O)N1CCC(C)(N2CCC(N(Cc3ccccc3)S(C)(=O)=O)CC2)CC1 [Example 29, N-benzyl-N-{1′-[(4,6-dimethylpyrimidin-5-yl)carbonyl]-4′-methyl-1,4′-bipiperidin-4-yl}methanesulfonamide]",346 nM
3,"Cc1ccnc(C)c1C(=O)N1CCC(C)(N2CCC(N(Cc3ccccc3)C(=O)C3CC(F)(F)C3)CC2)CC1 [Example 1, N-benzyl-N-{1′-[(2,4-dimethylpyridin-3-yl)carbonyl]-4′-methyl-1,4′-bipiperidinyl-4-yl}-3,3-difluorocyclobutanecarboxamide]",0.013 nM
4,"Cc1ncnc(C)c1C(=O)N1CCC(C)(N2CCC(N(Cc3ccccc3F)C(=O)C3CC(F)(F)C3)CC2)CC1 [Example 25, N-{1′-[(4,6-dimethylpyrimidin-5-yl)carbonyl]-4′-methyl-1,4′-bipiperidin-4-yl}-3,3-difluoro-N-(2-fluorobenzyl)cyclobutanecarboxamide]",5.5 nM
5,"Cc1ncnc(C)c1C(=O)N1C[C@H]2CC[C@@H](C1)[C@H]2N1CCC(N(Cc2ccccc2)C(=O)C2CC2)CC1 [Example 10, N-benzyl-N-(1-{(8-syn)-3-[(4,6-dimethylpyrimidin-5-yl)carbonyl]-3-azabicyclo}piperidin-4-yl)cyclopropanecarboxamide]",516 nM
